Earlier results in patent publication US20140162261A1, “DETECTION KIT FOR IDENTIFYING GENOTYPE IN DEPRESSION PATIENTS AND METHOD OF USING THE SAME” (priority 2012, published 2014).

What was measured:
[1] = molecular target: T1, striatal dopamine D2 receptors (Homo sapiens, UniProt P14416); conditions: 4 mg dose
T1 construct: host or cells: striatum (in vivo)

depression patients = conditions: SSRIs in combination with low-dose risperidone (0.5-1 mg/day), in 1-2 days
[2] = oral administration

T1 sequence (P14416 whole entry): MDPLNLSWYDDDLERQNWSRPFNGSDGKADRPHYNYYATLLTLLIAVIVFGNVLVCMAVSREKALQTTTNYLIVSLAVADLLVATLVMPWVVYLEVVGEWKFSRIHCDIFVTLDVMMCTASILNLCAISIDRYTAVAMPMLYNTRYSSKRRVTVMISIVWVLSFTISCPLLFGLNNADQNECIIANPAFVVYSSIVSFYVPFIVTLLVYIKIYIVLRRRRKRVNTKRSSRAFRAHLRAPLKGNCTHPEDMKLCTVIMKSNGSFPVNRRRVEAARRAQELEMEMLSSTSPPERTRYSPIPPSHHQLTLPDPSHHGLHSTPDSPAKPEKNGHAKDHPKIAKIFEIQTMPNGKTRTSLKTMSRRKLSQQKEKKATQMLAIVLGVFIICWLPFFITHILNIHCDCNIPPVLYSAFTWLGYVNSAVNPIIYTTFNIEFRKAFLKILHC

In the case of Cc1nc2n(c(=O)c1CCN1CCC(c3noc4cc(F)ccc34)CC1)CCCC2 [Risperidone], the “binding with cholinergic receptors” value (cholinergic receptors) is given as “does not bind”, the “blockade of striatal dopamine D2 receptors” value [1] is given as 70-80% and the “improvement of patients' symptoms” value (depression patients) is given as “significantly improve most of the patient's symptoms”. For the same molecule, the “affinity for α2-adrenergic receptors” value (α2-adrenergic receptors) was “low affinity” and the “effect of food on digestion (absorption)” value [2] was “not affected by food”.
